In brackets after ≈: the same amount, converted by molar mass. A value given as a limit tells only on which side of the number the result lay.

These results are taken from US8815857B2 (Boehringer Ingelheim International GmbH, priority 2011, dated 2014).

Series [1] addresses T1, Recombinant human soluble guanylate cyclase (sGC), alpha 1 / beta 1 subunits, heme-free (Homo sapiens, UniProt Q02108+Q02153).
T1 construct: histidine tag (C); made in house; host or cells: Sf9 insect cells (baculovirus coinfection)
T1 sequence (Q02108 1-690 partner): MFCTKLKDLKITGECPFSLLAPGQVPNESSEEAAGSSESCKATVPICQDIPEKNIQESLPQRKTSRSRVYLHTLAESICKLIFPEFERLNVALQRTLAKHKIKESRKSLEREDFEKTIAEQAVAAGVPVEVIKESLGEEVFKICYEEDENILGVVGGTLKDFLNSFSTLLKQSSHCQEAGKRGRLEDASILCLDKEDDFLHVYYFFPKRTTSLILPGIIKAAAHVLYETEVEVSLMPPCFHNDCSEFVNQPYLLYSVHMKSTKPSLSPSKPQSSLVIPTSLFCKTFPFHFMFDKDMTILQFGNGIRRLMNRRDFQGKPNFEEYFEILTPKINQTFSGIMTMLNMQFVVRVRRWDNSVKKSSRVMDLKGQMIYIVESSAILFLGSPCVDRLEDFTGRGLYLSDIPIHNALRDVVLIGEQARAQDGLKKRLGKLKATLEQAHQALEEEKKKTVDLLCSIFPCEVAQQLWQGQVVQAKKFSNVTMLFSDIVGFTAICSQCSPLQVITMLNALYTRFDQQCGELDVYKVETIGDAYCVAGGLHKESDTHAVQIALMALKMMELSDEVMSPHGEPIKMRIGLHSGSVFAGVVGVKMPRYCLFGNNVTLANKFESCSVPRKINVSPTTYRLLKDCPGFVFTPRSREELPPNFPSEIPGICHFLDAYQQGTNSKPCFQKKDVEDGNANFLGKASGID
T1 sequence (Q02153 1-619): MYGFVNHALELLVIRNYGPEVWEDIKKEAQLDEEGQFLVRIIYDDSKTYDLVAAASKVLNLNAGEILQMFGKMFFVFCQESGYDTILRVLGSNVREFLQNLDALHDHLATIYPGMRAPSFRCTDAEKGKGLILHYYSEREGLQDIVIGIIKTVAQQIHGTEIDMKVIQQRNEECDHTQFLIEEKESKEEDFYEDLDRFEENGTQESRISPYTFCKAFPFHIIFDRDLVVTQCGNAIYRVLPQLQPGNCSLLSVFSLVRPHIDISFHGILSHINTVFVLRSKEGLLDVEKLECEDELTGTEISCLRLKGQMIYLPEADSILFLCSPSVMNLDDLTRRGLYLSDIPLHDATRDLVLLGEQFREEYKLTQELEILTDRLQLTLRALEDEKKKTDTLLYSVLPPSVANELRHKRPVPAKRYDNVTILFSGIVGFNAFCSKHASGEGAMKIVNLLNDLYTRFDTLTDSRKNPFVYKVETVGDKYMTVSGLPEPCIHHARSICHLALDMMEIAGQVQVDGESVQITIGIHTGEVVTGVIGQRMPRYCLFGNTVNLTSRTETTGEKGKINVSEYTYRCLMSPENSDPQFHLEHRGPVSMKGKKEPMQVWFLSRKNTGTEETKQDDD
Put plainly: Molecular assay: cGMP formation by heme-free recombinant sGC (CisBio cGMP detection kit). It is filed as biochemical. The note with it: 300 pM heme-free sGC, 37° C., 60 min, cGMP readout; read-out: EC50 nM, Activity of Compounds in Molecular Assay. On the procedure:
Recombinant human soluble guanylate cyclase (sGC) is purified from Sf9 insect cells coinfected with baculoviruses expressing the alpha 1 or beta 1 subunit of sGC, both with a C-terminal histidine tag. Heme-free sGC is prepared by treating cell lysate with a final concentration of 0.5% Tween 20 prior to purification on a nickel affinity column.
sGC catalyzes the conversion of guanosine-5′-triphosphate (GTP) to cyclic guanosine monophosphate (cGMP). The activity of sGC is measured in vitro using the commercially available CisBio cGMP detection kit (catalog # 62GM2PEB) in a 384 well format. In brief, 300 pM heme-free sGC is incubated in reaction buffer (50 mM MOPS pH 6.8, 0.2 N KOH, 50 mM NaCl, 2 mM MgCl2, 0.1% BSA, 1.25 mM IBMX, 0.25 mM TCEP, 50 nM GTP) in the presence or absence of dilutions of test compounds diluted in DMSO (final concentration of 1%) in a volume of 10 microL at 37° C. for 60 min. Undiluted reaction products or an 80-fold dilution of reaction products (10 microL of either) prepared in reaction buffer containing 0.2 mM TCEP and 10 mM EDTA is mixed with 5 microL of d2-cGMP plus 5 microL of Eu^3+ cryptate-labeled anti-cGMP, each diluted in buffer containing 0.1 M KPO4 pH 7.5, 0.4 M KF, 20 mM EDTA, 0.2% BSA. After a one h incubation at room temperature in the dark, the mixtures are quantified on an EnVision plate reader (PerkinElmer) according to manufacturer instructions (laser excitation 337 nm, emission 620 and 665 nm). The ratio at each compound concentration is converted to nM cGMP using the linear portion of a calibration curve. Log compound concentration is plotted against combined undiluted and diluted nM cGMP values to determine the EC50 for each curve.

Series [2] can be described thus: Assessment of solubility: HT solubility in pION buffer, UV spectrophotometry. The note with it: 16-19 h incubation, 1.0% DMSO; for solubility: pION system solution buffer, kinetic from dmso stock.
Setting [3] is: pH 4.5, pH 4.5, aqueous buffer, Solubility (pH 4.5), pH 4.5 buffer.
Where [4] appears, read: pH 7.4, pH 7.4, aqueous buffer, Solubility (pH 7.4), pH 7.4 buffer.

`Cc1ccc(OCc2ccc(C(=O)N3CCCCC3)cc2C)c(-c2csc(N[C@H]3CC[C@@H](C(=O)O)C3)n2)c1` [Compound 40, (1R,3S)-3-[[4-[5-methyl-2-[[2-methyl-4-(piperidine-1-carbonyl)phenyl]methoxy]phenyl]thiazol-2-yl]amino]cyclopentanecarboxylic acid]: the EC50 in series [1] turned out to be 2600 nM. Also, the solubility in series [2] (setting [3]) is 2.3 µg/mL (≈ 4.31 µM); in series [2] (setting [4]), greater than 53 µg/mL.

Turning to `Cc1cc(CN2CCS(=O)(=O)CC2)ccc1COc1ccc(Cl)cc1-c1csc(N2CCC(C(=O)O)C(C(F)(F)F)C2)n1` (stereo not drawn) [Compound 157], the EC50 in series [1] is 940 nM. Besides, the solubility in series [2] (setting [3]) was 0.15 µg/mL (≈ 0.228 µM); in series [2] (setting [4]), greater than 65 µg/mL.

Regarding `Cc1ccc(OCc2ccc(CNC3CCCCC3)cc2C)c(-c2csc(N3CCC(C(=O)O)CC3)n2)c1` [Compound 45], the EC50 in series [1] was found to be 730 nM. In addition, the solubility in series [2] (setting [3]) is greater than 64 µg/mL; in series [2] (setting [4]) it was 35 µg/mL (≈ 65.6 µM).

Consider `CNC(=O)C1CCN(Cc2ccc(COc3c(C)cccc3-c3csc(N4CCC(C(=O)O)CC4)n3)c(C)c2)CC1` [Compound 115], for which the EC50 in series [1] amounted to 2700 nM. For the same molecule, the solubility in series [2] (setting [3]) and in series [2] (setting [4]) was greater than 57 µg/mL each time.

Turning to `CC(=O)N1CCN(Cc2ccc(COc3c(C)cccc3-c3csc(N4CCC(C(=O)O)CC4)n3)c(C)c2)CC1` [Compound 95], the EC50 in series [1] was 35 nM. For the same molecule, the solubility in series [2] (setting [3]) and in series [2] (setting [4]) was greater than 56 µg/mL throughout.

`Cc1cc(C(=O)N2CCCCC2)ccc1COc1ccccc1-c1csc(C2=CCC(C(=O)O)CC2)n1` (stereo not drawn) [Compound 8]: the concentration giving a half-maximal response (EC50) in series [1] came to 330 nM. The solubility in series [2] (setting [3]) was 0.15 µg/mL (≈ 0.29 µM); in series [2] (setting [4]) it was greater than 51 µg/mL.

Take `Cc1cc(C(=O)N2CCCCC2)ccc1COc1ccc(C#N)cc1-c1csc(N2C3CCC2CC(C(=O)O)C3)n1` (stereo not drawn) [Compound 109]: the EC50 in series [1] was found to be 1500 nM. Further, the solubility in series [2] (setting [3]) was 0.65 µg/mL (≈ 1.14 µM); in series [2] (setting [4]), greater than 56 µg/mL.

For `Cc1ccc(OCc2ccc(C(=O)N3CCCCC3)cc2C)c(-c2csc([C@H]3CC[C@@H](C(=O)O)CC3)n2)c1` [Compound 37], in series [1], the EC50 turned out to be 2100 nM. Further, the figures for the solubility in series [2] (setting [3]) and in series [2] (setting [4]) were 0.15 µg/mL (≈ 0.282 µM) and greater than 53 µg/mL, respectively.

For `Cc1cc(C(=O)N2CCCCC2)ccc1COc1ccccc1-c1csc(N2CCC(C(=O)O)C(C(F)(F)F)C2)n1` (stereo not drawn) [Compound 127], the half-maximal effective concentration (EC50) in series [1] amounted to 400 nM. Also, the solubility in series [2] (setting [3]) is 0.2 µg/mL (≈ 0.34 µM); in series [2] (setting [4]), greater than 58 µg/mL.

Turning to `Cc1ccc(OCc2ccc(C(=O)N3CCCCC3)cc2C#N)c(-c2csc(N3CCC(C(=O)O)CC3)n2)c1` [Compound 65], the EC50 in series [1] was 58 nM. Besides, in series [2] (pH 4.5 buffer), the “Solubility (pH 4.5)” value is listed as 0.1 μg/mL. For the same molecule, the solubility in series [2] (setting [4]) turned out to be 23 µg/mL (≈ 42.2 µM).

`Cc1cc(C(=O)N2CCCCC2)ccc1COc1ccc(F)cc1-c1csc([C@H]2CC[C@@H](C(=O)O)CC2)n1` [Compound 56]: the EC50 in series [1] came out at 1600 nM. In addition, the solubility in series [2] (setting [3]) worked out at 0.2 µg/mL (≈ 0.373 µM); in series [2] (setting [4]), 29 µg/mL (≈ 54 µM).

For `Cc1ccc(OCc2ccc(CN3CCS(=O)(=O)CC3)cc2C)c(-c2csc(N3CC4C(C3)C4C(=O)O)n2)c1` (stereo not drawn) [Compound 101], the EC50 in series [1] worked out at 1700 nM. Besides, the solubility in series [2] (setting [3]) was 3 µg/mL (≈ 5.28 µM); in series [2] (setting [4]), greater than 56 µg/mL.

`COCCN(C)Cc1ccc(COc2ccc(C)cc2-c2csc(N3CC[C@@H](C(=O)O)[C@@H](C)C3)n2)c(C#N)c1` [Compound 75]: the EC50 in series [1] stood at 600 nM. The solubility in series [2] (setting [3]) and in series [2] (setting [4]) was greater than 66 µg/mL in each case.

For `Cc1ccc(OCc2ccc(C(=O)N3CCCCC3)cc2C)c(-c2csc(N3CC4C(C3)C4C(=O)O)n2)c1` (stereo not drawn) [Compound 34], in series [1], the EC50 stood at 390 nM. In addition, the solubility in series [2] (setting [3]) is 0.9 µg/mL (≈ 1.69 µM); in series [2] (setting [4]), greater than 53 µg/mL.

As for `Cc1ccc(OCc2ccc(C(=O)N3CCC(O)CC3)cc2C#N)c(-c2csc(N3CCC(C(=O)O)CC3)n2)c1` [Compound 90], the EC50 in series [1] is 150 nM. The solubility in series [2] (setting [3]) was 35 µg/mL (≈ 62.4 µM); in series [2] (setting [4]), greater than 56 µg/mL.

For orientation: EC50 means the concentration needed to bring the measured effect to its halfway point. What is called solubility is the dissolved amount per volume that the medium holds. Higher therefore signals much dissolved substance.
